Measurements reported in publication PMC10302146, “Dual Anta-Inhibitors Targeting Protein Kinase CK1δ and A2A Adenosine Receptor Useful in Neurodegenerative Disorders” (Molecules, 2023).

Tests used:
[1] = tested on: N13 microglial cells; assay: N13 cell viability (CellTiter 96 AQueous One, MTS), ligands alone; type: cell-based; conditions: absence of CK cocktail
Method: Starting from these observations, since this double effect could be a suitable strategy for the treatment of chronic neurodegenerative diseases, in which neuroinflammation plays a crucial role, these compounds were tested on an in vitro model of neuroinflammation in comparison with the reference compounds. The experiments were performed using N13 microglial cells. The colorimetric method CellTiter 96® AQueous One Solution Cell Proliferation assay was used to determine the number of live cells in cytotoxicity or proliferation assays. The tetrazole compound MTS was bio-reduced by the cells into formazan, a colored product soluble in the cellular medium. The percentage of cell viability was analyzed through an absorbance reading at 492 nm. The concentrations of ligands were chosen based on the results of binding assays. Specifically, lower, similar, and higher concentrations than the Ki value were used.
Experiments were performed in triplicate.

[2] = tested on: N13 microglial cells; assay: N13 cell viability, CK cocktail 48 h pretreatment then ligand (A2AAR antagonist protocol); conditions: for effect after CK cocktail damage in the presence of NECA: compound 1 7.5 µM, compound 2 4.5 µM, NECA 10 µM; for effect after CK cocktail damage in the presence of NECA / counteraction of CK cocktail effect (cell viability): 60 min; for effect after CK cocktail damage in the presence of NECA / rescue of inflammatory damage (cell viability): after CK cocktail 20 ng/mL 48 h; for rescue of inflammatory damage (cell viability) / counteraction of CK cocktail effect (cell viability): lower concentrations (0.625 µM compound 1, 0.375 µM compound 2); for rescue of inflammatory damage (cell viability): 30 min; for counteraction of CK cocktail effect (cell viability): after CK cocktail 48 h
Method: Given the nature of compounds, dual A2A/CK1δ anta-inhibitors, their neuroprotective effect against a neuroinflammatory insult was investigated following two different approaches aimed at studying the antagonist activity on the A2AAR and the inhibitor effect on CK1δ. […] The concentrations used were 35, 65, and 400 µM at 60 min of incubation.
N13 cells were plated in 96-well plates at the confluence of 1 × 10^4 cells/well and incubated overnight. Cells were divided into two groups in order to study the activity of compounds on A2AAR and CK1δ (Scheme 1). […] Cells of the second group were pretreated with 2 µL at different concentrations of understudy ligand, or the reference compound PF670462, for 30 or 60 min and then with further addition of a proinflammatory cocktail of cytokines for 48 h (Scheme 1). After treatment, 20 µL of CellTiter 96® AQueous One Solution Reagent was added to each well to a final volume of 100 µL. After 1 h of incubation, absorbance was measured at 492 nm in the microplate reader GENiosPro. Cell viability was estimated as the relation between the OD of treated cells and the OD of untreated cells in percentage. An untreated control and a control with the solvent were run. Experiments were performed in triplicate.

[3] = tested on: N13 microglial cells; assay: N13 cell viability, ligand pretreatment 60 min then CK cocktail 48 h (CK1δ inhibition protocol); type: cell-based
[4] = Everted gut sac absorption study (duodenum), HPLC-MS; type: in vitro ADME, rat; conditions: for Papp at 60 min: male, Wistar, rat
Method: Despite these remarkable assumptions, as many known kinase inhibitors are very often unable to cross lipid bilayer membranes, including the blood–brain barrier, and are, therefore, only suitable for non-central nervous system disorders, the ability of A2A/CK1δ double anta-inhibitors to cross the intestinal barrier was investigated. The experiment was performed using the everted gut sac model. The everted sac model is an efficient tool for studying in vitro drug absorption mechanisms, intestinal metabolism of drugs, the role of transporters in drug absorption, and investigating the role of intestinal enzymes during drug transport through the intestine. Compounds 1 and 2 were measured by liquid chromatography-mass spectrometry (LC-MS) in the mucosal and serosal media to provide a complete picture of the transport.
Compounds 1 and 2 were incubated in the duodenum for 60 min at concentrations of 10^−4, 10^−5, and 10^−6 M to evaluate their absorption.
The concentrations 10^−4, 10^−5, and 10^−6 M correspond to 24.6, 2.46, and 0.246 μg/mL of compound 1 and to 37.6, 3.76, and 0.376 μg/mL of compound 2 due to different molecular weights. Glucose was used to verify the integrity and viability of the gut sacs. Intestine sacs were exposed to the concentrations of compounds under study with respect to glucose-treated tissues. After incubation time, fluids from the mucosal (outside the sacs) and serosal (inside the sacs) sides of the rat gut sacs were collected and detected by HPLC-MS analysis. As expected, the amount of the absorbed analytes was concentration dependent even if compound 1 was much better absorbed with respect to compound 2 (Table 2 and Table 3). […] Data are reported as means ± SE (n = 4–5 experiments). The amount of compounds absorbed compared to the initial concentration is statistically different (p < 0.05).
Adult male Wistar rats (250–300 g; 11–12 weeks) were sacrificed by cervical dislocation, the small intestine was removed, and the duodenum segment was isolated and washed in TC199 medium. The intestine was divided into segments of 2–2.5 cm in length (4 for each animal), and each of them was everted on a glass rod of […] in diameter. All segments were closed at one end with a silk thread, filled with fresh oxygenated TC199 medium, and closed at the other end, creating a shut section (sac). Each sac was placed in a 50 mL beaker containing 9.0 mL of medium aerated with oxygen (O2/CO2, 95%:5%) and thermostated at 37 °C. A total of 1 mL of medium containing one of the samples at a concentration of 1 uM, 10 uM, or 100 uM was added. Each concentration was tested in duplicate in three different animals. In order to mimic the intestine peristalsis, gut sacs were incubated in an oscillating water bath (60 cycles/min). After 1h incubation, sacs were removed, washed in saline solution (0.9% NaCl), and wiped with filter paper. The content of each sac (serosal fluid) was collected into a 1.5 mL Eppendorf tube, and the sac was weighed before and after serosal fluid removal to calculate the exact volume contained inside. Samples were centrifuged for 15 min. at 13,500× g, and the supernatant aqueous solution was filtered through a microporous membrane (0.45 μm) for high-performance liquid chromatography (HPLC). The amount of compound 1 or 2 present inside (serosal fluid) and outside (mucosal fluid) of each sac was calculated by HPLC with diode-array detection (HPLC-DAD) analysis.
The obtained samples from the everted sac model experiment were centrifuged for 20 min at 13,500× g rpm, and the supernatant aqueous solution was filtered through a microporous membrane (0.45 μm pore size) for high-performance liquid chromatography-mass spectrometry analysis. LC-MS analysis was carried out using an HPLC Agilent Technologies 1260 Infinity II and a single quadrupole mass spectrometer. […]

[5] = biological target: human recombinant A1AR; parameters: method as in PMID 37259317; conditions: [3H]CCPA, membranes from CHO cells stably transfected; means ± standard errors; read-out: KiA1; cited from earlier work
[6] = tested on: CK1δ; parameters: method as in PMID 37259317; conditions: cited from earlier work; for IC50: enzymatic inhibition
[7] = duodenum, 60 min, initial 10^−4 M (24.6 μg/mL compound 1, 37.6 μg/mL compound 2)
[8] = duodenum, 60 min, initial 10^−5 M (2.46 μg/mL compound 1, 3.76 μg/mL compound 2)
[9] = duodenum, 60 min, initial 10^−6 M (0.246 μg/mL compound 1, 0.376 μg/mL compound 2)

SMILES	effect after CK cocktail damage in the presence of NECA [2]	rescue of inflammatory damage (cell viability) [2]	counteraction of CK cocktail effect (cell viability) [2]	Percentage of Drug Absorption (A%) ([4]; 10^−4 M, 60 min)	Percentage of Drug Retention (Ad%) ([4]; 10^−4 M, 60 min)	Percentage of Drug Absorption (A%) ([4]; 10^−5 M, 60 min)	Percentage of Drug Retention (Ad%) ([4]; 10^−5 M, 60 min)	Absorbed Concentration [4, 7]	Absorbed Concentration [4, 8]	Absorbed Concentration [4, 9]	Ki [5]	% Residual Activity at 10 μM ± sd [6]	% Residual Activity at 40 μM ± sd [6]	IC50 [6]	further results
CN(C)c1nc(N)c2ncn(C3CCCC3)c2n1 [compound 1, 9-Cyclopentyl-N2,N2-dimethyl-9H-purine-2,6-diamine]	significantly lower than that obtained in the absence of NECA	unable to rescue the inflammatory damage	able to counteract the effect of the CK cocktail	47%	2%	42%	10%	11.5 µg/mL	1.03 µg/mL	0.059 µg/mL	3.34 ± 0.658 µM	27 ± 4.0%	19 ± 9.4%	1.75 ± 0.2 µM	cell viability vs. control ([1]; 0.625 µM, 30 min): 112% ± 2.4; cell viability vs. control ([1]; 7.5 µM, 30 min): lower cell viability with respect to the control; cell viability vs. control ([1]; 7.5 µM, 60 min): cell viability similar to the control; viability at 7.5 µM ([2]; N13, 48 h, read-out: cell viability): 89%; viability at 40 µM ([3]; N13, 40 µM 60 min before CK cocktail 48 h, CK cocktail alone 79% ± 1.1 vs. control): 85%; Percentage of Drug Absorption (A%) ([4]; 10^−6 M, 60 min): 24%; Percentage of Drug Retention (Ad%) ([4]; 10^−6 M, 60 min): 35%; Papp at 60 min ([4]; 10^−4 M): 33 ×10⁻⁶ cm/s; Papp at 60 min ([4]; 10^−5 M): 29.6 ×10⁻⁶ cm/s; Papp at 60 min ([4]; 10^−6 M): 16.9 ×10⁻⁶ cm/s
CN(C)c1nc(NCc2nc3ccccc3[nH]2)c2ncn(C3CCCC3)c2n1 [compound 2, N^6-methyl-(2-benzimidazolyl)-2-dimethyamino-9-cyclopentyladenine]	significantly lower than that obtained in the absence of NECA	unable to rescue the inflammatory damage	able to counteract the effect of the CK cocktail	23%	55%	15%	66%	8.66 µg/mL	0.576 µg/mL	not detectable	2.9 ± 0.648 µM	34 ± 5.0%	22 ± 1.0%	0.59 ± 0.2 µM	cell viability vs. control ([1]; 0.375 µM, 30 min): 86% ± 1.2; cell viability vs. control ([1]; 4.5 µM, 60 min): 109% ± 1.4; cell viability vs. control ([1]; 0.375 and 0.75 µM, 60 min): decrease in cell viability similar to 30 min of incubation; cell viability vs. control ([1]; all concentrations (0.375, 0.75, 4.5 µM), 30 min): decrease in cell viability; cell viability [2]: 125% ± 3.1; cell viability ([3]; 25 µM 60 min before CK cocktail 48 h, CK cocktail alone 79% ± 1.1 vs. control (Figure 6)): 94% ± 2.2; effect of NECA on the neuroprotective effect of the compound ([3]; compound 25 µM 60 min before CK cocktail 48 h, then NECA 10 µM): ineffective; Papp (×10^−6 cm/s) ([4]; 10^−4 M, 60 min): 16.1 ×10^−6 cm/s; Papp (×10^−6 cm/s) ([4]; 10^−5 M, 60 min): 10.8 ×10^−6 cm/s; metabolic conversion in everted gut sac (HPLC analysis) ([4]; duodenum, 60 min): partially converted into its metabolite, compound 1
